Tests used:
[1] = target: T1, human GIP receptor (HEK-GIPR) (Homo sapiens, UniProt P48546); test: GIP receptor binding (RBA) displacement assay; conditions: for inhibition at 0.01 µM: read-out: GIP RBA % inhibition at 10 nM
T1 construct: expressed in transfected cells
T1 sequence (P48546 22-466): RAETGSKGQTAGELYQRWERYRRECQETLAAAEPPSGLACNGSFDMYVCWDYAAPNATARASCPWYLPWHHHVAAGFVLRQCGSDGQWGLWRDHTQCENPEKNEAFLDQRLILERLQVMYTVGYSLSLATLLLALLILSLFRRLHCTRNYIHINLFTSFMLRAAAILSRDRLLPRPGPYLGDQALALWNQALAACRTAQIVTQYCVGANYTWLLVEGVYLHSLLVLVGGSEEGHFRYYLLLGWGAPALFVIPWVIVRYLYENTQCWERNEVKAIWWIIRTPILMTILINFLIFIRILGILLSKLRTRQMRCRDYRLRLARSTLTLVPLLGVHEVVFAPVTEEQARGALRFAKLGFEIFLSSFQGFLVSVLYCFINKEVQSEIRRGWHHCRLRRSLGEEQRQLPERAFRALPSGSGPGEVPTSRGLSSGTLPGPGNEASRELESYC
Protocol: Membrane fractions were prepared from confluent cell cultures of HEK-GIPR, snap frozen, and stored at −80° C. until use. […] Reactions were allowed to proceed to equilibrium for 90 minutes at room temperature with constant shaking. The reaction mixtures were then filtered through 96-well glass fiber filter plates separating bound and unbound fractions of radioligand.

NIH/Swiss mice = test: Oral glucose tolerance test (OGTT), glucose lowering; type: in vivo; conditions: 30 nM/kg, blood glucose
Protocol: . Test compounds were injected IP (t=0 min) immediately following baseline measurements of 2 hour fasted NIH/Swiss mice. Blood samples were taken at 60, 120, and 180 minutes after injection. In some assays, samples were also taken at 240 minutes after the injection. Blood glucose was measured with a One-Touch® Ultra® glucose meter (LifeScan, Inc., Milpitas, Calif.). […].
The tests were performed as described in Example 5.

[^14Leu] GIP(1-30)-exendin-4(31-39)-Ado-Lys-N-ε-(2-(S)-cyano pyrrolidyl)
GIP RBA % inhibition at 10 nM ([1]; 10 nM conjugate, 30 pM 125I-GIP, relative to human GIP (100%)): 99%
OGTT (30 nM/kg) % maximal decrease (NIH/Swiss mice): −24%

CC[C@H](C)[C@H](NC(=O)[C@H](CO)NC(=O)[C@H](Cc1ccc(O)cc1)NC(=O)[C@H](CC(=O)O)NC(=O)[C@H](CO)NC(=O)[C@@H](NC(=O)[C@H](Cc1ccccc1)NC(=O)[C@@H](NC(=O)CNC(=O)[C@H](CCC(=O)O)NC(=O)[C@@H](C)NC(=O)[C@@H](N)Cc1ccc(O)cc1)[C@@H](C)O)[C@@H](C)CC)C(=O)N[C@@H](C)C(=O)N[C@@H](CCSC)C(=O)N[C@@H](CC(=O)O)C(=O)N[C@@H](CCCCN)C(=O)N[C@H](C(=O)N[C@@H](Cc1c[nH]cn1)C(=O)N[C@@H](CCC(N)=O)C(=O)N[C@@H](CCC(N)=O)C(=O)N[C@@H](CC(=O)O)C(=O)N[C@@H](Cc1ccccc1)C(=O)N[C@H](C(=O)N[C@@H](CC(N)=O)C(=O)N[C@@H](Cc1c[nH]c2ccccc12)C(=O)N[C@@H](CC(C)C)C(=O)N[C@@H](CC(C)C)C(=O)N[C@@H](C)C(=O)N[C@@H](CCC(N)=O)C(=O)N[C@@H](CCCCN)C(=O)NCCOCCOCC(=O)NCCOCCOCC(=O)NCCCCCCCCCCC(=O)NCCC(=O)NCCC(=O)NCCCC[C@H](NC(=O)[C@@H]1CCC(=O)N1)C(=O)N[C@@H](Cc1c[nH]c2ccccc12)C(=O)N[C@@H](C)C(=O)N1CCC[C@H]1C(=O)O)C(C)C)[C@@H](C)CC [[^2D-Ala]GIP-(1-30)-Ado-Ado-Aun-βAla-βAla-ε-NH-Lys(α-NH-Pyroglutamoyl)-Trp-Ala-Pro]
inhibition at 0.01 µM [1]: 70%

CC[C@H](C)[C@H](NC(=O)[C@H](CO)NC(=O)[C@H](Cc1ccc(O)cc1)NC(=O)[C@H](CC(=O)O)NC(=O)[C@H](CO)NC(=O)[C@@H](NC(=O)[C@H](Cc1ccccc1)NC(=O)[C@@H](NC(=O)CNC(=O)[C@H](CCC(=O)O)NC(=O)[C@@H](C)NC(=O)[C@@H](N)Cc1ccc(O)cc1)[C@@H](C)O)[C@@H](C)CC)C(=O)N[C@@H](C)C(=O)N[C@@H](CC(C)C)C(=O)N[C@@H](CC(=O)O)C(=O)N[C@@H](CCCCN)C(=O)N[C@H](C(=O)N[C@@H](Cc1c[nH]cn1)C(=O)N[C@@H](CCC(N)=O)C(=O)N[C@@H](CCC(N)=O)C(=O)N[C@@H](CC(=O)O)C(=O)N[C@@H](Cc1ccccc1)C(=O)N[C@H](C(=O)N[C@@H](CC(N)=O)C(=O)N[C@@H](Cc1c[nH]c2ccccc12)C(=O)N[C@@H](CC(C)C)C(=O)N[C@@H](CC(C)C)C(=O)N[C@@H](C)C(=O)N[C@@H](CCC(N)=O)C(=O)N[C@@H](CCCCN)C(=O)N1CCC[C@H]1C(=O)N[C@@H](CO)C(=O)N[C@@H](CO)C(=O)NCC(=O)N[C@@H](C)C(=O)N1CCC[C@H]1C(=O)N1CCC[C@H]1C(=O)N1CCC[C@H]1C(=O)N[C@@H](CO)C(=O)NCCOCCOCC(=O)NCCOCCOCC(=O)NCCCCCCCCCCC(=O)NCCC(=O)NCCC(=O)NCCCC[C@H](NC(=O)[C@@H]1CCC(=O)N1)C(=O)N[C@@H](Cc1c[nH]c2ccccc12)C(=O)N[C@@H](C)C(=O)N1CCC[C@H]1C(=O)O)C(C)C)[C@@H](C)CC [[^2D-Ala^14Leu] GIP(1-30)-exendin-4(31-39)-Ado-Ado-Aun-βAla-βAla-ε-NH-Lys(α-NH-Pyroglutamoyl)-Trp-Ala-Pro]
inhibition at 0.01 µM [1]: 86%

CC[C@H](C)[C@H](NC(=O)[C@H](CO)NC(=O)[C@H](Cc1ccc(O)cc1)NC(=O)[C@H](CC(=O)O)NC(=O)[C@H](CO)NC(=O)[C@@H](NC(=O)[C@H](Cc1ccccc1)NC(=O)[C@@H](NC(=O)CNC(=O)[C@H](CCC(=O)O)NC(=O)[C@@H](C)NC(=O)[C@@H](N)Cc1ccc(O)cc1)[C@@H](C)O)[C@@H](C)CC)C(=O)N[C@@H](C)C(=O)N[C@@H](CC(C)C)C(=O)N[C@@H](CC(=O)O)C(=O)N[C@@H](CCCCN)C(=O)N[C@H](C(=O)N[C@@H](Cc1c[nH]cn1)C(=O)N[C@@H](CCC(N)=O)C(=O)N[C@@H](CCC(N)=O)C(=O)N[C@@H](CC(=O)O)C(=O)N[C@@H](Cc1ccccc1)C(=O)N[C@H](C(=O)N[C@@H](CC(N)=O)C(=O)N[C@@H](Cc1c[nH]c2ccccc12)C(=O)N[C@@H](CC(C)C)C(=O)N[C@@H](CC(C)C)C(=O)N[C@@H](C)C(=O)N[C@@H](CCC(N)=O)C(=O)N[C@@H](CCCCN)C(=O)NCCC(=O)NCCC(=O)NCCCC[C@H](NC(=O)[C@@H]1CCC(=O)N1)C(=O)N[C@@H](Cc1c[nH]c2ccccc12)C(=O)N[C@@H](C)C(=O)N1CCC[C@H]1C(=O)O)C(C)C)[C@@H](C)CC [[^2D-Ala,^14Leu] GIP-(1-30)-β-Ala-β-Ala-Lys(α-NH-Pyroglutamoyl)-Trp-Ala-Pro-COOH]
inhibition at 0.01 µM [1]: 66%

CC[C@H](C)[C@H](NC(=O)[C@H](CO)NC(=O)[C@H](Cc1ccc(O)cc1)NC(=O)[C@H](CC(=O)O)NC(=O)[C@H](CO)NC(=O)[C@@H](NC(=O)[C@H](Cc1ccccc1)NC(=O)[C@@H](NC(=O)CNC(=O)[C@H](CCC(=O)O)NC(=O)[C@H](C)NC(=O)[C@H](Cc1ccc(O)cc1)NC(=O)COCCOCCNC(=O)COCCOCCNC(=O)CC[C@H](N)C(=O)N1CCC[C@H]1C#N)[C@@H](C)O)[C@@H](C)CC)C(=O)N[C@@H](C)C(=O)N[C@@H](CCSC)C(=O)N[C@@H](CC(=O)O)C(=O)N[C@@H](CCCCN)C(=O)N[C@H](C(=O)N[C@@H](Cc1c[nH]cn1)C(=O)N[C@@H](CCC(N)=O)C(=O)N[C@@H](CCC(N)=O)C(=O)N[C@@H](CC(=O)O)C(=O)N[C@@H](Cc1ccccc1)C(=O)N[C@H](C(=O)N[C@@H](CC(N)=O)C(=O)N[C@@H](Cc1c[nH]c2ccccc12)C(=O)N[C@@H](CC(C)C)C(=O)N[C@@H](CC(C)C)C(=O)N[C@@H](C)C(=O)N[C@@H](CCC(N)=O)C(=O)NC(CCCCN)C(N)=O)C(C)C)[C@@H](C)CC (stereo partly drawn) [N-(γ-L-Glu-2-(S)-cyanopyrrolidyl)-Ado-Ado) GIP(1-30)]
inhibition at 0.01 µM [1]: 32%

From US8598314B2 (priority 2007, dated 2013)
